Results: US20260356817A1, “AMINOPYRIMIDINE AND AMINOTRIAZINE DERIVATIVES AS MYC PROTEIN MODULATORS” (Sanford Burnham Prebys Medical Discovery Institute, priority 2022, published 2026)
Like-named read-outs stand apart in the source and are kept apart here.

System: Myc
Assay: Myc inhibition assay: Myc expression per cell by anti-Myc immunofluorescence, high-content imaging
Assay type: cell-based, human (patient-derived medulloblastoma xenograft cells)
Conditions: medulloblastoma PDX cells, 4 h
Method in brief: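 Cells from Myc-driven medulloblastoma patient-derived orthotopic xenografts, propagated only in NSG mouse cerebellum, were dissociated and plated in serum-free medium. After overnight recovery, compounds were applied for 4 hours; cells were then fixed, stained for Myc and DAPI, and per-cell Myc quantified by high-content imaging to derive IC50.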

[1] = Table 1, read-out: IC50 (Myc inhibition)
[2] = Table 2, read-out: MYC Inhibition IC50

Row | IC50 [1] | IC50 [2] | SMILES
1 | 0.2 to 1 µM | 0.2 to 1 µM | CC(C)C(=O)Nc1cccc(Nc2nccc(-c3ccc4[nH]cnc4c3)n2)c1 [Compound 257, N-(3-((4-(1H-benzo[d]imidazol-5-yl)pyrimidin-2-yl)amino)phenyl)isobutyramide]
2 | 10 to 100 µM | 10 to 100 µM | CN(c1ccccc1)c1ncnc(-c2ccnc(O)c2)n1 [Compound 215, 4-(4-(methyl(phenyl)amino)-1,3,5-triazin-2-yl)pyridin-2-ol]
3 | 10 to 100 µM | 10 to 100 µM | Oc1cc(-c2ccnc(Nc3ccncn3)n2)ccn1 [Compound 175, 4-(2-(pyrimidin-4-ylamino)pyrimidin-4-yl)pyridin-2-ol]
4 | 10 to 100 µM | 10 to 100 µM | COc1cccc(-c2ccnc(N(C)c3ccccc3)n2)n1 [Compound 227, 4-(6-methoxypyridin-2-yl)-N-methyl-N-phenylpyrimidin-2-amine]
5 | < 0.2 µM | < 0.2 µM | FC(F)c1cccc(Nc2cc(-c3ccc4[nH]cnc4c3)ccn2)n1 [Compound 278, N-(4-(1H-benzo[d]imidazol-5-yl)pyridin-2-yl)-6-(difluoromethyl)pyridin-2-amine]
6 | 0.2 to 1 µM | 0.2 to 1 µM | FC(F)(F)c1cccc(Nc2nccc(-c3ccc4nccn4c3)n2)c1 [Compound 127, 4-(Imidazo[1,2-a]pyridin-6-yl)-N-(3-(trifluoromethyl)phenyl)pyrimidin-2-amine]
7 | 1 to 10 µM | 1 to 10 µM | FC(F)(F)c1cccc(Nc2nccc(-c3ccc4[nH]ccc4c3)n2)c1 [Compound 152, 4-(1H-indol-5-yl)-N-(3-(trifluoromethyl)phenyl)pyrimidin-2-amine]
8 | 10 to 100 µM | 10 to 100 µM | CN(c1ccccc1)c1nccc(-c2ccnc(O)c2)n1 [Compound 221, 4-(2-(methyl(phenyl)amino)pyrimidin-4-yl)pyridin-2-ol]
9 | 1 to 10 µM | 1 to 10 µM | COc1cc(-c2ccnc(Nc3cccc(F)c3)n2)ccn1 [Compound 243, N-(3-fluorophenyl)-4-(2-methoxypyridin-4-yl)pyrimidin-2-amine]
10 | 10 to 100 µM | 10 to 100 µM | Oc1cc(-c2ccnc(Nc3cccc(C(F)(F)F)n3)n2)ccn1 [Compound 167, 4-(2-((6-(trifluoromethyl)pyridin-2-yl)amino)pyrimidin-4-yl)pyridin-2-ol]
11 | 0.2 to 1 µM | 0.2 to 1 µM | Oc1ccc(-c2ccnc(Nc3cccc(C(F)(F)F)c3)n2)cc1 [Compound 130, 4-(2-((3-(Trifluoromethyl)phenyl)amino)pyrimidin-4-yl)phenol]
12 | 10 to 100 µM | 10 to 100 µM | Oc1cc(-c2ccnc(Nc3cncnc3)n2)ccn1 [Compound 178, 4-(2-(pyrimidin-5-ylamino)pyrimidin-4-yl)pyridin-2-ol]
13 | 10 to 100 µM | 10 to 100 µM | CN(c1ccccc1)c1nccc(-c2cncc(O)c2)n1 [Compound 218, 5-(2-(methyl(phenyl)amino)pyrimidin-4-yl)pyridin-3-ol]
14 | 10 to 100 µM | 10 to 100 µM | Oc1cc(-c2ccnc(Nc3cc(C(F)(F)F)ccn3)n2)ccn1 [Compound 158, 4-(2-((4-(trifluoromethyl)pyridin-2-yl)amino)pyrimidin-4-yl)pyridin-2-ol]
15 | 1 to 10 µM | 1 to 10 µM | COc1cc(-c2ncnc(Nc3ccccc3)n2)ccn1 [Compound 240, 4-(2-methoxypyridin-4-yl)-N-phenyl-1,3,5-triazin-2-amine]

More lines, now with the values behind:

Row | SMILES | IC50 [1] | IC50 [2]
16 | COc1ccccc1Nc1nccc(-c2ccc3[nH]cnc3c2)n1 [Compound 61, 4-(1H-benzo[d]imidazol-5-yl)-N-(2-methoxyphenyl)pyrimidin-2-amine] | 1 to 10 µM | 1 to 10 µM
17 | Cc1cnc(Nc2cccc(C(F)(F)F)c2)nc1-c1cnc2nc[nH]c2c1 [Compound 113, 4-(1H-imidazo[4,5-b]pyridin-6-yl)-5-methyl-N-(3-(trifluoromethyl)phenyl)pyrimidin-2-amine] | 1 to 10 µM | 1 to 10 µM
18 | Nc1ncc(-c2ccnc(Nc3cccc(C(F)(F)F)c3)n2)s1 [Compound 119, 5-(2-((3-(Trifluoromethyl)phenyl)amino)pyrimidin-4-yl)thiazol-2-amine] | < 0.2 µM | < 0.2 µM
19 | CNC(=O)c1cccc(Nc2nccc(-c3ccc4[nH]cnc4c3)n2)c1 [Compound 42, 3-((4-(1H-benzo[d]imidazol-5-yl)pyrimidin-2-yl)amino)-N-methylbenzamide] | 0.2 to 1 µM | 0.2 to 1 µM
20 | Cc1ccccc1Nc1nccc(-c2ccc3[nH]cnc3c2)n1 [Compound 51, 4-(1H-benzo[d]imidazol-5-yl)-N-(o-tolyl)pyrimidin-2-amine] | 1 to 10 µM | 1 to 10 µM
21 | CC(C)(C)NS(=O)(=O)c1cccc(Nc2nccc(-c3ccc4[nH]cnc4c3)n2)c1 [Compound 32, 3-((4-(1H-benzo[d]imidazol-5-yl)pyrimidin-2-yl)amino)-N-(tert-butyl)benzenesulfonamide] | 0.2 to 1 µM | 0.2 to 1 µM
22 | Oc1cccc(Nc2nccc(-c3ccc4[nH]cnc4c3)n2)c1 [Compound 90, 3-((4-(1H-benzo[d]imidazol-5-yl)pyrimidin-2-yl)amino)phenol] | < 0.2 µM | < 0.2 µM
23 | c1cnc(-n2cc(Nc3nccc(-c4ccc5[nH]cnc5c4)n3)cn2)nc1 [Compound 20, 4-(1H-benzo[d]imidazol-5-yl)-N-(1-(pyrimidin-2-yl)-1H-pyrazol-4-yl)pyrimidin-2-amine] | 0.2 to 1 µM | 0.2 to 1 µM
24 | c1cc(-c2ccc3[nH]cnc3c2)nc(NC2CCCCC2)n1 [Compound 96, 4-(1H-benzo[d]imidazol-5-yl)-N-cyclohexylpyrimidin-2-amine] | 1 to 10 µM | 1 to 10 µM
25 | CC(C)(C)c1cccc(Nc2nccc(-c3ccc4[nH]cnc4c3)n2)c1 [Compound 87, 4-(1H-benzo[d]imidazol-5-yl)-N-(3-(tert-butyl)phenyl)pyrimidin-2-amine] | 0.2 to 1 µM | 0.2 to 1 µM
26 | CN1CCN(c2cccc(Nc3nccc(-c4ccc5[nH]cnc5c4)n3)c2)CC1 [Compound 71, 4-(1H-benzo[d]imidazol-5-yl)-N-(3-(4-methylpiperazin-1-yl)phenyl)pyrimidin-2-amine] | 0.2 to 1 µM | 0.2 to 1 µM
27 | COc1ccc(Oc2ccnc(Nc3cccc(F)c3)n2)cn1 [Compound 124] | 10 to 100 µM | 10 to 100 µM
28 | Cc1cccc(C)c1-c1cccc(Nc2nccc(-c3ccc4[nH]cnc4c3)n2)c1 [Compound 3, 4-(1H-benzo[d]imidazol-5-yl)-N-(2′,6′-dimethyl-[1,1′-biphenyl]-3-yl)pyrimidin-2-amine] | 1 to 10 µM | 1 to 10 µM
29 | N#Cc1ccc(Nc2nccc(-c3ccc4[nH]cnc4c3)n2)cc1 [Compound 99, 4-((4-(1H-benzo[d]imidazol-5-yl)pyrimidin-2-yl)amino)benzonitrile] | 0.2 to 1 µM | 0.2 to 1 µM
30 | Fc1ccc(Nc2nccc(-c3ccc4[nH]cnc4c3)n2)cc1 [Compound 81, 4-(1H-benzo[d]imidazol-5-yl)-N-(4-fluorophenyl)pyrimidin-2-amine] | 0.2 to 1 µM | 0.2 to 1 µM
31 | COCCNc1cccc(Nc2nccc(-c3ccc4[nH]cnc4c3)n2)c1 [Compound 47, N^1-(4-(1H-benzo[d]imidazol-5-yl)pyrimidin-2-yl)-N^3-(2-methoxyethyl)benzene-1,3-diamine] | 0.2 to 1 µM | 0.2 to 1 µM
